Experimental data as given in patent publication US20010018440A1, “L-beta-dioxolane uridine analogs and methods for treating and preventing virus infections” (Yale University and The University of Georgia Research …, priority 1996, published 2001).
Converted amounts (≈) assume the structure as drawn. “Also recorded” adds a separate entry of the source. Like-named read-outs stand apart in the source and are kept apart here.

Tests used:
[1] = Neutral red uptake cytotoxicity assay; format: cell-based; settings: human, uninfected human foreskin fibroblast (HFF) cells
Description: Two days prior to use, human foreskin fibroblast (HiFF) cells were plated into six well plates and incubated at 37° C. with 5% CO2 and 90% humidity. On the date of assay, the drug was made upon MEM with 2% FBS then serially diluted 1:5 in MEM using six concentrations of drug. The initial starting concentration was 100/μg/ml down to 0.03 μg/ml. The virus used for infection was diluted in MEM containing 10% FBS to a desired concentration which gave 20-30 plaques per well. The media was aspirated from the wells and 0.2 ml of virus was added to each well in triplicate with 0.2 ml of media being added to drug toxicity wells. The plates were then incubated for one hour with shaking every fifteen minutes. After incubation, MEM containing the various drug concentrations was added to appropriate wells in a volume of 2.0 ml. Additional media was added again on day five and the cultures incubated for a total of 10 days. At the end of the incubation, the liquid was then aspirated off, stained with 6% neutral red solution for six hours, washed and plaques enumerated using a stereomicroscope. […]

Ellen strain of VZV = test: Plaque reduction assay for Varicella-Zoster virus in HFF cells; format: cell-based; settings: 10 days
Description: Two days prior to use, human foreskin fibroblast (HiFF) cells were plated into six well plates and incubated at 37° C. with 5% CO2 and 90% humidity. On the date of assay, the drug was made upon MEM with 2% FBS then serially diluted 1:5 in MEM using six concentrations of drug. The initial starting concentration was 100/μg/ml down to 0.03 μg/ml. The virus used for infection was diluted in MEM containing 10% FBS to a desired concentration which gave 20-30 plaques per well. The media was aspirated from the wells and 0.2 ml of virus was added to each well in triplicate with 0.2 ml of media being added to drug toxicity wells. The plates were then incubated for one hour with shaking every fifteen minutes. After incubation, MEM containing the various drug concentrations was added to appropriate wells in a volume of 2.0 ml. Additional media was added again on day five and the cultures incubated for a total of 10 days. At the end of the incubation, the liquid was then aspirated off, stained with 6% neutral red solution for six hours, washed and plaques enumerated using a stereomicroscope. The results are compared with untreated control wells, and EC50 and CC50 values calculated.

EBV [2] = test: Anti-EBV slot blot assay of EBV DNA in H1 cells; format: cell-based, Epstein-Barr virus
Description: A high yield of BBV producing cell line H1 derived from human P3HR1 cells was used in this study. Cells were cultured in RPMIf medium supplemented with 10% dialyzed fetal bovine serum and 100 μg/ml Kanamycin and were grown at 37° C. in a humidified incubator containing 5% CO2.
H1 cells were maintained in logarithmic phase of growth for two days prior to the initiation of treatment. The H1 cells were seeded in 24 well plates at the density of 2×10^5 cells per well in 2 ml of fresh medium with or without drug treatment and were incubated at 37° C. for 5 days. Following the period of drug treatment the cells were pelleted and used to determine the inhibitory effect of drug on EBV DNA by slot blot assay.
Autoradiographfic results were anlayzed by densitometry. […] See, for example, Yao, et al., Antimic. Agzents and Chemo., July, 1993, p.

mitochondrial DNA = test: mt DNA content (toxicity to mitochondria, slot blot rehybridization); format: cell-based, human
From the text: Autoradiographfic results were anlayzed by densitometry. […] See, for example, Yao, et al., Antimic.

cell growth = test: Cytotoxicity (cell growth)
[3] = Pharmacokinetics in BDF1 mice; settings: 50 mg/kg po versus ip/iv, preliminary
Description: At the times indicated in FIG. 5, blood was drawn into a heparinized capillary from the retro orbital plexus of female BDF1 mice. The plasma was separated from the formed elements by centrifugation. Then 100 μl of plasma was mixed with an equal volume of 30% trichloracetic acid and kept on ice for 10 minutes. […] The aqueous phase was moved to a clean tube and extracted again with the trioctylamine:freon mixture. Then 50 μl of the neutralized aqueous phase was injected onto a Perkin Elmer HPLC system. The samples were eluted from an Altech C18 column with an isocratic solvent system of water at 2 ml per min. The concentrations of the unknown samples were determined by comparison with standards of known concentrations.

[4] = tested on: lactate accumulation in the medium; test: Lactate accumulation in medium of drug treated cultures
[5] = Stability at different pH's (HPLC); settings: for stability (in words): pH 2
Description: In order to explore the possibility of using L-I-OddU and L-Br-OddU orally for the treatment of EBV-associated diseases, its stability at different pH levels is important. L-I-OddU was exposed to different pH solutions as indicated for 3 hr at 37°. The percentage of compound remaining as L-I-OddU was examined using HPLC with a C18 column.

HBV = HBV assay; format: cell-based
From the text: (§1) Plaque reduction assays used for HSV-1, HSV-2 and CMV have been previously described. See, Gao, et al., Antimic. Agents and Chemo., May, 1990, p. 808-812 (HSV-Plaque); Cheng, et al., Proc. Natl. Acad. Sci. USA, vol. 80, 2767-2770 (May 1983) (CMV plaque reduction assay). The methods for testing against EBV, HBV, and HIV were also used as described previously. See, Yao, et al., Antimic. Agents and Chemo., July, 1993, p.

EBV [6] = settings: reported in Chu et al. PCT application; cited from earlier work
HIV = HIV assay; format: cell-based; settings: Human immunodeficiency virus 1
From the text: as §1

HSV-2 = test: Plaque reduction assay HSV-2; format: cell-based; settings: Human alphaherpesvirus 2; HSV-2, plaque reduction
From the text: as §1

CMV = test: Plaque reduction assay CMV; format: cell-based; settings: Human betaherpesvirus 5
From the text: as §1

HSV-1 = test: Plaque reduction assay HSV-1; format: cell-based; settings: Human alphaherpesvirus 1; HSV-1, plaque reduction
From the text: as §1

[7] = Human alphaherpesvirus 3, 240 h, read-out: EC50
[8] = H1 cells, 5 days, EC50 of Table 2
[9] = human gammaherpesvirus 4, 120 h, H1 cells, 5 days, EC50 of Table 2, read-out: Anti-EBV EC50
[10] = read-out: Cytotoxicity IC50, cell growth
[11] = H1 cells, 5 days, EC50 of Table 2, read-out: Anti-EBV EC50

## Nc1nc2c(ncn2COCCO)c(=O)[nH]1 [ACV (acycloguanine), acyclovir, reference compound]
[1]
  CC50 at 10 days: > 100 µg/mL
Ellen strain of VZV; [7]
  EC50: 0.6 µg/mL (≈ 2.66 µM)

## O=c1[nH]c(=O)n(C2COC(CO)O2)cc1Br [D-Br-OddU, reference compound]
EBV [2]; [8]
  Anti-EBV EC50: Inactive

## O=c1[nH]c(=O)n(C2COC(CO)O2)cc1I [D-I-OddU, reference compound]
EBV [2]; [8]
  Anti-EBV EC50: Inactive

## Nc1nc(O)c2ncn(COC(CO)CO)c2n1 [DHPG, gancyclovir, reference compound]
Mitochondrial DNA
  mt DNA Content ID50: Inactive
Cell growth; human, H1 cells
  IC50: 75 µM
EBV [2]; [9]
  EC50: 5 µM

## O=c1[nH]c(=O)n([C@@H]2CO[C@H](CO)O2)cc1Br [L-Br-OddU]
[3]
  efficiency of oral uptake: about 60%
[4]
  induction of lactate accumulation in the medium: lack of induction
Mitochondrial DNA
  mt DNA Content ID50: Inactive
Ellen strain of VZV
  EC50: 0.8 µg/mL (≈ 2.73 µM)
Cell growth; [10]
  IC50: > 100 µM
[5]; pH1, 3 hr at 37°
  % Remaining: 105%
[5]
  stability (in words): stable
EBV [2]
  anti-EBV activity (in words): most potent
EBV [2]; [11]
  EC50: 0.2 µM
EBV [2]; H1 cells, 5 days, second EC50 column of Table 2, read-out: Anti-EBV EC50
  EC50: 2 µM

## O=c1[nH]c(=O)n([C@@H]2CO[C@H](CO)O2)cc1C(F)(F)F [L-CF3-OddU, (2S,4S)-1-[2-(Etydroxymethyl)-1,3-dioxolan-4-yl]-5-trifluoromethyluracil]
Mitochondrial DNA
  mt DNA Content ID50: Inactive
Cell growth; [10]
  IC50: > 100 µM
EBV [2]; [11]
  EC50: 3 µM

## O=c1[nH]c(=O)n([C@@H]2CO[C@H](CO)O2)cc1Cl [L-CI-OddU, (2S,4S)-1-[2-(Hydroxymethyl)-1,3-dioxolan-4-yl]-5-chlorouracil]
[1]
  CC50 at 10 days: > 100 µg/mL
Mitochondrial DNA
  mt DNA Content ID50: Inactive
Ellen strain of VZV; [7]
  EC50: 27.9 µg/mL (≈ 112 µM)
Cell growth; human, H1 cells
  IC50: > 100 µM
EBV [2]; [9]
  EC50: 3 µM

## O=c1[nH]c(=O)n([C@@H]2CO[C@H](CO)O2)cc1F [L-F-OddU, (2S,4S)-1-[2-(Hydroxymethyl)-1,3-dioxolan-4-yl]-5 fluorouracil]
Mitochondrial DNA
  mt DNA Content ID50: Inactive
Cell growth; human, H1 cells
  IC50: > 100 µM
EBV [2]; [9]
  EC50: 50 µM

## Cc1cn([C@H]2O[C@@H](CO)[C@H](O)[C@H]2F)c(=O)[nH]c1=O [L-FMAU, 2′-fluoro-5-methyl-β-L-arabinofuranosyluridine, reference compound]
HBV
  activity against HBV (in words): active
EBV [6]
  activity against EBV (PCT/US95/01253): good activity
EBV [2]
  anti-EBV activity (in words): active

## O=c1[nH]c(=O)n([C@@H]2CO[C@H](CO)O2)cc1I [L-I-OddU, (2S,4S)-1-[2-(Hydroxymethyl)-1,3-dioxolan-4-yl]-5-iodouracil]
HBV
  activity against HBV (in words): little activity
HBV; Hepatitis B virus, HBV
  EC50: > 10 µM
[4]
  induction of lactate accumulation in the medium: lack of induction
HIV
  EC50: > 100 µM
HSV-2
  EC50: > 50 µM
[1]
  CC50 at 10 days: > 100 µg/mL
CMV
  EC50: > 10 µM
Mitochondrial DNA
  mt DNA Content ID50: Inactive
HSV-1
  EC50: 50 µM
Ellen strain of VZV; [7]
  EC50: 4.2 µg/mL (≈ 12.4 µM)
Cell growth; human, H1 cells
  IC50: > 100 µM
[5]; pH1, 3 hr at 37°
  % Remaining: 102%
[5]
  stability (in words): stable
[5]; pH2, 3 hr at 37°
  % Remaining: 102%
[5]; pH5, 3 hr at 37°
  % Remaining: 102%
[5]; pH7, 3 hr at 37°
  % Remaining: 99%
[5]; pH9, 3 hr at 37°
  % Remaining: 100%
EBV [2]
  anti-EBV activity (in words): most potent; also recorded: slightly more potent than L-Br-OddU
EBV [2]; comparison with L-FMAU
  EC50 against EBV relative to L-FMAU: at least four times lower than L-FMAU
EBV [2]; [9]
  EC50: 0.1 µM
EBV [2]; human gammaherpesvirus 4, 120 h, H1 cells, 5 days, second EC50 column of Table 2, read-out: Anti-EBV EC50
  EC50: 0.4 µM
EBV [2]; human gammaherpesvirus 4, EBV, Table 3, read-out: EC50
  EC50: 0.1 µM

## O=c1ccn([C@@H]2CO[C@H](CO)O2)c(=O)[nH]1 [L-OddU, (2S,4S)-1-[2-(Hydroxymethyl)-1,3-dioxolan-4-yl]uracil]
Mitochondrial DNA
  mt DNA Content ID50: Inactive
Cell growth; human, H1 cells
  IC50: > 100 µM
EBV [2]; [9]
  EC50: > 50 µM

## Nc1ccn([C@H]2CC[C@@H](CO)O2)c(=O)n1 [ddC, reference compound]
Mitochondrial DNA; read-out: mt DNA Content ID50
  IC50: 0.02 µM
Cell growth; [10]
  IC50: 20 µM
EBV [2]; [8]
  Anti-EBV EC50: Inactive
